Measurements as given in ChEMBL document CHEMBL4049445.
Calls of active or inactive are those of the source. The rule behind the calls is not given here.

Tested on: Influenza A virus
Test: Antiviral activity against Influenza A virus A/PR/8/34 expressing amantadine-resistant M2 proton channel S31N mutant infected in MDCK cells
Format: functional, cell-based
Settings: A/Puerto Rico/8/1934(H1N1)

| Structure (SMILES) | Activity |
| --- | --- |
| OC1(C2CCNCC2)C2CC3CC(C2)CC1C3 (configuration not stated) | inactive |
| C1CC(C2C3CC4CC(C3)CC2C4)CCN1 (configuration not stated) | inactive |
| C(=C1C2CC3CC(C2)CC1C3)C1CCNCC1 | inactive |
| OC1(CC2CCNCC2)C2CC3CC(C2)CC1C3 (configuration not stated) | inactive |
| N=C(N)N1CCC(C=C2C3CC4CC(C3)CC2C4)CC1 | inactive |
| CCN1CCC(C2C3CC4CC(C3)CC2C4)CC1 (configuration not stated) | inactive |
| N=C(N)N1CCC(CC2C3CC4CC(C3)CC2C4)CC1 (configuration not stated) | inactive |
| C1CC(C23CC4CC(CC(C4)C2)C3)CCN1 | inactive |
| C1CCC(C23CC4CC(CC(C4)C2)C3)NC1 (configuration not stated) | inactive |
| CN1CCC(CC2C3CC4CC(C3)CC2C4)CC1 (configuration not stated) | inactive |
| N=C(N)N1CCC(C23CC4CC(CC(C4)C2)C3)CC1 | inactive |
| C1CC(CC2C3CC4CC(C3)CC2C4)CCN1 (configuration not stated) | inactive |
